According to US12630528B2, “Amino aryl derivative useful as diacylglycerol acyltransferase 2 inhibitor and use thereof” (LG CHEM, LTD., priority 2019, dated 2026):

Target: T1, human DGAT2 (Homo sapiens, UniProt Q96PD7)
T1 construct: FLAG (DYKDDDDK); made in house; host or cells: Sf-21 insect cells (BacPAK baculovirus system); membrane fraction used
T1 sequence (Q96PD7 1-388): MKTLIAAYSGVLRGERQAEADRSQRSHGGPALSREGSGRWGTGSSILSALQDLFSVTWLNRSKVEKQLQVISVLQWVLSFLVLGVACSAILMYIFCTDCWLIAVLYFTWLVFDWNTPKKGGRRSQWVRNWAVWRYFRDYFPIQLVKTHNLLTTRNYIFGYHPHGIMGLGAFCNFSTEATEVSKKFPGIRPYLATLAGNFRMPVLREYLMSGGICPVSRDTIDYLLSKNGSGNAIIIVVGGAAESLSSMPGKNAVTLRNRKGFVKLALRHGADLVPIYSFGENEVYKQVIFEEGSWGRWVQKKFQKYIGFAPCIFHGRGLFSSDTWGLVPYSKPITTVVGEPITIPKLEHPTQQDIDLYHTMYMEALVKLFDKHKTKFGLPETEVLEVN
Assay: DGAT2 enzyme activity inhibition, Phospholipid FlashPlate SPA
Type: biochemical
Conditions: recombinant human DGAT2 membrane protein from Sf-21 cells; inhibition of [14C]-TG production; 37° C.
Summary of the method: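 Sf-21 membranes expressing recombinant human DGAT2 (2 μg) preincubated with compound (3 nM–10 μM, 1% DMSO) and 50 μM 1,2 sn-oleoyl glycerol, 20 min at 37 °C, then 1 μM [14C]oleoyl-CoA for 15 min. [14C]-TG counted by SPA; inhibition as % of untreated.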

Row | Structure (SMILES) | IC50
1 | CCOc1ccccc1O[C@@H]1CCCN(c2cncc(Nc3nc4ccccc4s3)n2)C1 [Example 5, (R)—N-(6-(3-(2-ethoxyphenoxy)piperidin-1-yl)pyrazin-2-yl)benzo[d]thiazol-2-amine] | ≥ 13 µM
2 | CCOc1cccnc1O[C@@H]1CCCN(c2cncc(Nc3nccc(O[C@H]4CC[C@@H](C(=O)O)CC4)n3)n2)C1 [Example 138, (1S,4s)-4-((2-((6-((R)-3-((3-ethoxypyridin-2-yl)oxy)piperidin-1-yl)pyrazin-2-yl)amino)pyrimidin-4-yl)oxy)cyclohexane-1-carboxylic Acid] | 0.78 µM
3 | CCOc1ccccc1O[C@@H]1CCCN(c2cncc(Nc3cc(C(=O)O)ccn3)n2)C1 [Example 33, (R)-2-((6-(3-(2-ethoxyphenoxy)piperidin-1-yl)pyrazin-2-yl)amino)isonicotinic Acid] | > 10 µM
4 | CCOc1cccnc1O[C@@H]1CCCN(c2cncc(Nc3cccc(-c4ccc(C(C)(C)C(=O)O)cc4)n3)n2)C1 [Example 62, (R)-2-(4-(6-((6-(3-((3-ethoxypyridin-2-yl)oxy)piperidin-1-yl)pyrazin-2-yl)amino)pyridin-2-yl)phenyl)-2-methylpropanoic Acid] | 0.17 µM
5 | CCOc1ccccc1O[C@@H]1CCCN(c2cncc(Nc3nccc(-c4cccc(OC(C)(C)C(=O)O)c4)n3)n2)C1 [Example 158, (R)-2-(3-(2-((6-(3-(2-ethoxyphenoxy)piperidin-1-yl)pyrazin-2-yl)amino)pyrimidin-4-yl)phenoxy)-2-methylpropanoic Acid] | 1.1 µM
6 | CCOc1cccnc1O[C@@H]1CCCN(c2cncc(Nc3cccc(Oc4ccc(C(=O)O)cc4)n3)n2)C1 [Example 90, (R)-4-((6-((6-(3-((3-ethoxypyridin-2-yl)oxy)piperidin-1-yl)pyrazin-2-yl)amino)pyridin-2-yl)oxy)benzoic Acid] | 1.2 µM
7 | CCOc1ccccc1O[C@@H]1CCCN(c2cncc(Nc3cccc(-c4cnn(CC(C)(C)C(=O)O)c4)n3)n2)C1 [Example 86, (R)-3-(4-(6-((6-(3-(2-ethoxyphenoxy)piperidin-1-yl)pyrazin-2-yl)amino)pyridin-2-yl)-1H-pyrazol-1-yl)-2,2-dimethylpropanoic Acid] | 0.3 µM
8 | CCOc1ccccc1O[C@@H]1CCCN(c2cncc(Nc3nccc(Oc4ccc(CC(=O)O)cc4)n3)n2)C1 [Example 162, (R)-2-(4-((2-((6-(3-(2-ethoxyphenoxy)piperidin-1-yl)pyrazin-2-yl)amino)pyrimidin-4-yl)oxy)phenyl)acetic Acid] | 0.23 µM
9 | CCOc1ccccc1O[C@@H]1CCCN(c2cncc(Nc3cccc(Oc4cccc(CC(=O)O)c4)n3)n2)C1 [Example 95, (R)-2-(3-((6-((6-(3-(2-ethoxyphenoxy)piperidin-1-yl)pyrazin-2-yl)amino)pyridin-2-yl)oxy)phenyl)acetic Acid] | 0.083 µM
10 | CCOc1ccccc1O[C@@H]1CCCN(c2cncc(Nc3cccc(C(C)(C)C(=O)O)n3)n2)C1 [Example 50, (R)-2-(6-((6-(3-(2-ethoxyphenoxy)piperidin-1-yl)pyrazin-2-yl)amino)pyridin-2-yl)-2-methylpropanoic Acid] | 7.2 µM
11 | CCOc1ccccc1O[C@@H]1CCCN(c2ccnc(Nc3cccc(-c4ccc(NCC(=O)O)cc4)n3)n2)C1 [Example 76] | 0.3 µM
12 | CCOc1ccccc1O[C@@H]1CCCN(c2cncc(Nc3ccnc(-c4ccc(C(C)(C)C(=O)O)cc4)n3)n2)C1 [Example 169, (R)-2-(4-(4-((6-(3-(2-ethoxyphenoxy)piperidin-1-yl)pyrazin-2-yl)amino)pyrimidin-2-yl)phenyl)-2-methylpropanoic Acid] | 0.26 µM
13 | CCOc1ccccc1O[C@@H]1CCCN(c2cncc(Nc3cc(-c4cccc(CC(C)(C)C(=O)O)c4)ccn3)n2)C1 [Example 44, (R)-3-(3-(2-((6-(3-(2-ethoxyphenoxy)piperidin-1-yl)pyrazin-2-yl)amino)pyridin-4-yl)phenyl)-2,2-dimethylpropanoic Acid] | 4 µM
14 | CCOc1ccccc1O[C@@H]1CCCN(c2cncc(Nc3nc4cc(Cl)ccc4o3)n2)C1 [Example 11, (R)-5-chloro-N-(6-(3-(2-ethoxyphenoxy)piperidin-1-yl)pyrazin-2-yl)benzo[d]oxazol-2-amine] | 0.059 µM
15 | CCOc1ccccc1O[C@@H]1CCCN(c2cncc(Nc3cc(C(C)(C)COCCOC)no3)n2)C1 [Example 8, (R)—N-(6-(3-(2-ethoxyphenoxy)piperidin-1-yl)pyrazin-2-yl)-3-(1-(2-methoxyethoxy)-2-methylpropan-2-yl)isooxazol-5-amine] | 0.55 µM
16 | CCOc1ccccc1O[C@@H]1CCCN(c2cncc(Nc3ccc(CCC(=O)O)cn3)n2)C1 [Example 38, (R)-3-(6-((6-(3-(2-ethoxyphenoxy)piperidin-1-yl)pyrazin-2-yl)amino)pyridin-3-yl)propanoic Acid] | > 10 µM
17 | CCOc1ccccc1O[C@@H]1CCCN(c2cncc(Nc3nccc(N4CCC(CC(=O)O)CC4)n3)n2)C1 [Example 125, (R)-2-(1-(2-((6-(3-(2-ethoxyphenoxy)piperidin-1-yl)pyrazin-2-yl)amino)pyrimidin-4-yl)piperidin-4-yl)acetic Acid] | 1.8 µM
18 | CCOc1ccccc1O[C@@H]1CCCN(c2cncc(Nc3cc(C(C)(C)C(=O)O)ccn3)n2)C1 [Example 35, (R)-2-(2-((6-(3-(2-ethoxyphenoxy)piperidin-1-yl)pyrazin-2-yl)amino)pyridin-4-yl)-2-methylpropanoic Acid] | 0.44 µM
19 | CCOc1ccccc1O[C@@H]1CCCN(c2cncc(Nc3nc(-c4cccc(CC(C)(C)C(=O)O)c4)cc(C(F)(F)F)n3)n2)C1 [Example 167, (R)-3-(3-(2-((6-(3-(2-ethoxyphenoxy)piperidin-1-yl)pyrazin-2-yl)amino)-6-(trifluoromethyl)pyrimidin-4-yl)phenyl)-2,2-dimethylpropanoic Acid] | 0.67 µM
20 | CCOc1cccnc1O[C@@H]1CCCN(c2cncc(Nc3cccc(Oc4cccc(C(=O)O)c4)n3)n2)C1 [Example 88, (R)-3-((6-((6-(3-((3-ethoxypyridin-2-yl)oxy)piperidin-1-yl)pyrazin-2-yl)amino)pyridin-2-yl)oxy)benzoic Acid] | 1.3 µM
21 | CCOc1ccccc1O[C@@H]1CCCN(c2cncc(Nc3cccc(-c4cccc(CC(C)(C)C(=O)O)c4)n3)n2)C1 [Example 63, (R)-3-(3-(6-((6-(3-(2-ethoxyphenoxy)piperidin-1-yl)pyrazin-2-yl)amino)pyridin-2-yl)phenyl)-2,2-dimethylpropanoic Acid] | 0.071 µM
22 | CCOc1ccccc1O[C@@H]1CCCN(c2cncc(Nc3ccccc3)n2)C1 [Example 24, (R)—N-6-(3-(2-ethoxyphenoxy)piperidin-1-yl)-N-phenylpyrazin-2-amine] | 5.5 µM
23 | CCOc1ccccc1O[C@@H]1CCCN(c2cncc(Nc3cccc(-c4ccc(CC(C)(C)C(=O)O)cc4)n3)n2)C1 [Example 72, (R)-3-(4-(6-((6-(3-(2-ethoxyphenoxy)piperidin-1-yl)pyrazin-2-yl)amino)pyridin-2-yl)phenyl)-2,2-dimethylpropanoic Acid] | 0.14 µM
24 | CCOc1ccccc1O[C@@H]1CCCN(c2ccnc(Nc3nccc(-c4ccc(CC(C)(C)C(=O)O)cc4)n3)n2)C1 [Example 156, (R)-3-(4-(2-((4-(3-(2-ethoxyphenoxy)piperidin-1-yl)pyrimidin-2-yl)amino)pyrimidin-4-yl)phenyl)-2,2-dimethylpropanoic Acid] | 1.2 µM
25 | CCOc1ccccc1O[C@@H]1CCCN(c2cncc(Nc3cccc(CC(C)(C)C(=O)O)n3)n2)C1 [Example 51, (R)-3-(6-((6-(3-(2-ethoxyphenoxy)piperidin-1-yl)pyrazin-2-yl)amino)pyridin-2-yl)-2,2-dimethylpropanoic Acid] | 1.9 µM
26 | CCOc1ccccc1O[C@@H]1CCCN(c2cncc(Nc3cc(-c4ccc(CC(C)(C)C(=O)O)cc4)ccn3)n2)C1 [Example 45, (R)-3-(4-(2-((6-(3-(2-ethoxyphenoxy)piperidin-1-yl)pyrazin-2-yl)amino)pyridin-4-yl)phenyl)-2,2-dimethylpropanoic Acid] | 0.77 µM
27 | CCOc1cccnc1O[C@@H]1CCCN(c2cncc(Nc3nc(-c4cccc(CC(C)(C)C(=O)O)c4)ccc3F)n2)C1 [Example 101, (R)-3-(3-(6-((6-(3-((3-ethoxypyridin-2-yl)oxy)piperidin-1-yl)pyrazin-2-yl)amino)-5-fluoropyridin-2-yl)phenyl)-2,2-dimethylpropanoic Acid] | 0.19 µM
28 | CCOc1cccnc1O[C@@H]1CCCN(c2cncc(Nc3cccc(-c4cc(CC(C)(C)C(=O)O)ccc4F)n3)n2)C1 [Example 79, (R)-3-(3-(6-((6-(3-((3-ethoxypyridin-2-yl)oxy)piperidin-1-yl)pyrazin-2-yl)amino)pyridin-2-yl)-4-fluorophenyl)-2,2-dimethylpropanoic Acid] | 0.27 µM
29 | CCOc1cccnc1O[C@@H]1CCCN(c2cncc(Nc3ccnc(-c4ccc(OC(C)(C)C(=O)O)cc4)n3)n2)C1 [Example 179, (R)-2-(4-(4-((6-(3-((3-ethoxypyridin-2-yl)oxy)piperidin-1-yl)pyrazin-2-yl)amino)pyrimidin-2-yl)phenoxy)-2-methylpropanoic Acid] | 0.59 µM
30 | CCOc1cccnc1O[C@@H]1CCCN(c2ccnc(Nc3nccc(-c4ccc(CC(C)(C)C(=O)O)cc4)n3)n2)C1 [Example 157, (R)-3-(4-(2-((4-(3-((3-ethoxypyridin-2-yl)oxy)piperidin-1-yl)pyrimidin-2-yl)amino)pyrimidin-4-yl)phenyl)-2,2-dimethylpropanoic Acid] | 0.72 µM
